Each structure is given as a SMILES string. ≈ marks a conversion by molar mass, not a printed value.

The test concerns M. abscessus. As to the kind of experiment: MIC determination, CLSI M24-A. The note with it: Mycobacteroides abscessus, CLSI M24-A. Format: cell-based.
As to `CC1CCC(C(=O)Nc2nc3ccc(OC(F)(F)F)cc3s2)C1` (centres unmarked) [Example 102, 3-methyl-N-[6-(trifluoromethoxy)-1,3-benzothiazol-2-yl]cyclopentane-1-carboxamide], the MIC is 2 to 32 µg/mL (≈ 5.81 to 92.9 µM).

`CC1(C(=O)Nc2nc3c(F)c(F)c(F)cc3s2)CCCCCC1` [Example 103, 1-methyl-N-(4,5,6-trifluoro-1,3-benzothiazol-2-yl)cycloheptane-1-carboxamide] showed a minimal inhibitory concentration (MIC) of 2 to 32 µg/mL (≈ 5.84 to 93.5 µM).

The molecule `CC1(C(=O)Nc2nc3ccc(OC(F)(F)F)cc3s2)CC2CCC1C2` (centres unmarked) [Example 104, 2-methyl-N-[6-(trifluoromethoxy)-1,3-benzothiazol-2-yl]bicyclo[2.2.1]heptane-2-carboxamide] had a minimal inhibitory concentration (MIC) of 2 to 32 µg/mL (≈ 5.4 to 86.4 µM).

Molecule `CC1(C(=O)Nc2cc3ccccc3s2)CCCCC1` [Example 105, N-(1-benzothiophen-2-yl)-1-methylcyclohexane-1-carboxamide] registered an MIC of 2 to 32 µg/mL (≈ 7.32 to 117 µM).

`Cc1cc2nc(NC(=O)C3(C)CCCCC3)sc2c(C)c1Br` [Example 106, N-(6-bromo-5,7-dimethyl-1,3-benzothiazol-2-yl)-1-methylcyclohexane-1-carboxamide] showed an MIC of 2 to 32 µg/mL (≈ 5.24 to 83.9 µM).

For `O=C(Nc1nc2ccc(Cl)cc2s1)C12CC3CC(CC(C3)C1)C2` [Example 107, N-(6-chloro-1,3-benzothiazol-2-yl)adamantane-1-carboxamide], the MIC fell in the range of 2 to 32 µg/mL (≈ 5.77 to 92.3 µM).

Consider `O=C(Nc1nc2ccc(OC(F)F)cc2s1)C1CCCCCCC1` [Example 108, N-[6-(difluoromethoxy)-1,3-benzothiazol-2-yl]cyclooctanecarboxamide], for which the minimum inhibitory concentration (MIC) lay within 2 to 32 µg/mL (≈ 5.64 to 90.3 µM).

For `O=C(Nc1nc2c(F)cc(F)cc2s1)C1CCCCCCC1` [Example 109, N-(4,6-difluoro-1,3-benzothiazol-2-yl)cyclooctanecarboxamide], the minimum inhibitory concentration (MIC) fell in the range of 2 to 32 µg/mL (≈ 6.17 to 98.6 µM).

`O=C(Nc1nc2ccc(Cl)cc2s1)C1CCCCCCC1` [Example 110, N-(6-chloro-1,3-benzothiazol-2-yl)cyclooctanecarboxamide] had an MIC of 2 to 32 µg/mL (≈ 6.19 to 99.1 µM).

`CCOc1ccc2nc(NC(=O)C34CC5CC(C)(CC(C)(C5)C3)C4)sc2c1` [Example 111, N-(6-ethoxy-1,3-benzothiazol-2-yl)-3,5-dimethyladamantane-1-carboxamide] gave a minimum inhibitory concentration (MIC) of 2 to 32 µg/mL (≈ 5.2 to 83.2 µM).

`CC12CC3CC(C)(C1)CC(C(=O)Nc1nc4cc(Cl)c(Cl)cc4o1)(C3)C2` [Example 112, N-(5,6-dichloro-1,3-benzoxazol-2-yl)-3,5-dimethyladamantane-1-carboxamide] showed an MIC of 2 to 32 µg/mL (≈ 5.08 to 81.4 µM).

The molecule `CC1CC(C(=O)Nc2nc3cc(Cl)c(Cl)cc3o2)CC(C)(C)C1` (centres unmarked) [Example 113, N-(5,6-dichloro-1,3-benzoxazol-2-yl)-3,3,5-trimethylcyclohexane-1-carboxamide] came in with a minimal inhibitory concentration (MIC) of 2 to 32 µg/mL (≈ 5.63 to 90.1 µM).

`CC1CC(C(=O)Nc2nc3cc(Cl)ccc3o2)CC(C)(C)C1` (centres unmarked) [Example 114, N-(5-chloro-1,3-benzoxazol-2-yl)-3,3,5-trimethylcyclohexane-1-carboxamide] came in with an MIC of 2 to 32 µg/mL (≈ 6.23 to 99.7 µM).

The molecule `CC12CC3CC(C)(C1)CC(C(=O)Nc1nc4ccc(Br)cc4o1)(C3)C2` [Example 115, N-(6-bromo-1,3-benzoxazol-2-yl)-3,5-dimethyladamantane-1-carboxamide] returned an MIC of 2 to 32 µg/mL (≈ 4.96 to 79.3 µM).

For `O=C(Nc1nc2c(F)c(F)c(F)cc2s1)C1CCCCCCC1` [Example 116, N-(4,5,6-trifluoro-1,3-benzothiazol-2-yl)cyclooctanecarboxamide], the MIC lay in the range of 2 to 32 µg/mL (≈ 5.84 to 93.5 µM).

In turn, `CC12CC3CC(C)(C1)CC(C(=O)Nc1nc4ccc(Cl)cc4o1)(C3)C2` [Example 117, N-(6-chloro-1,3-benzoxazol-2-yl)-3,5-dimethyladamantane-1-carboxamide] returned an MIC of 2 to 32 µg/mL (≈ 5.57 to 89.2 µM).

In turn, `CC1CC(C(=O)Nc2nc3ccc(Cl)cc3o2)CC(C)(C)C1` (centres unmarked) [Example 118, N-(6-chloro-1,3-benzoxazol-2-yl)-3,3,5-trimethylcyclohexane-1-carboxamide] gave an MIC of 2 to 32 µg/mL (≈ 6.23 to 99.7 µM).

In turn, `CC12CC3CC(C)(C1)CC(C(=O)Nc1nc4cc(F)c(F)cc4[nH]1)(C3)C2` [Example 119, N-(5,6-difluoro-1H-1,3-benzodiazol-2-yl)-3,5-dimethyladamantane-1-carboxamide] returned a minimum inhibitory concentration (MIC) of 2 to 32 µg/mL (≈ 5.56 to 89 µM).

As to `CC12CC3CC(C)(C1)CC(C(=O)Nc1nc4ccc(F)cc4[nH]1)(C3)C2` [Example 120, N-(6-fluoro-1H-1,3-benzodiazol-2-yl)-3,5-dimethyladamantane-1-carboxamide], the MIC is 2 to 32 µg/mL (≈ 5.86 to 93.7 µM).

On to `CC1CC(C(=O)Nc2nc3c(F)cccc3s2)CC(C)(C)C1` (centres unmarked) [Example 121, N-(4-fluoro-1,3-benzothiazol-2-yl)-3,3,5-trimethylcyclohexane-1-carboxamide], for which the MIC fell in the range of 2 to 32 µg/mL (≈ 6.24 to 99.9 µM).

In turn, `CC12CC3CC(C)(C1)CC(C(=O)Nc1nc4c(F)cccc4s1)(C3)C2` [Example 122, N-(4-fluoro-1,3-benzothiazol-2-yl)-3,5-dimethyladamantane-1-carboxamide] returned an MIC of 2 to 32 µg/mL (≈ 5.58 to 89.3 µM).

As to `CC12CC3CC(C)(C1)CC(C(=O)Nc1nc4ccc(F)cc4s1)(C3)C2` [Example 123, N-(6-fluoro-1,3-benzothiazol-2-yl)-3,5-dimethyladamantane-1-carboxamide], the minimal inhibitory concentration (MIC) is 2 to 32 µg/mL (≈ 5.58 to 89.3 µM).

Take `COc1ccc2nc(NC(=O)C34CC5CC(C)(CC(C)(C5)C3)C4)sc2c1` [Example 124, N-(6-methoxy-1,3-benzothiazol-2-yl)-3,5-dimethyladamantane-1-carboxamide]: the minimal inhibitory concentration (MIC) is 2 to 32 µg/mL (≈ 5.4 to 86.4 µM).

`CC1CC(C(=O)Nc2nc3ccccc3s2)CC(C)(C)C1` (centres unmarked) [Example 125, N-(1,3-benzothiazol-2-yl)-3,3,5-trimethylcyclohexane-1-carboxamide] came in with a minimal inhibitory concentration (MIC) of 2 to 32 µg/mL (≈ 6.61 to 106 µM).

Turning to `O=C(Nc1nc2ccc(C(F)(F)F)cc2s1)C1CCCC(C(F)(F)F)C1` (centres unmarked) [Example 126, 3-(trifluoromethyl)-N-[6-(trifluoromethyl)-1,3-benzothiazol-2-yl]cyclohexane-1-carboxamide], the MIC was in the range of 2 to 32 µg/mL (≈ 5.05 to 80.7 µM).

`CC1CCCC(C(=O)Nc2nc3ccc(C(F)(F)F)cc3s2)C1` (centres unmarked) [Example 127, 3-methyl-N-[6-(trifluoromethyl)-1,3-benzothiazol-2-yl]cyclohexane-1-carboxamide] gave a minimal inhibitory concentration (MIC) of 2 to 32 µg/mL (≈ 5.84 to 93.5 µM).

On to `CC1(C(=O)Nc2nc3ccc(C(F)(F)F)cc3s2)CCCC1` [Example 128, 1-methyl-N-[6-(trifluoromethyl)-1,3-benzothiazol-2-yl]cyclopentane-1-carboxamide], for which the MIC was 2 to 32 µg/mL (≈ 6.09 to 97.5 µM).

With `C[C@]1(C(=O)Nc2nc3ccc(OC(F)(F)F)cc3s2)C[C@@H]2C=C[C@H]1C2` [Example 129, (1R,2S,4R)-2-methyl-N-[6-(trifluoromethoxy)-1,3-benzothiazol-2-yl]bicyclo[2.2.1]hept-5-ene-2-carboxamide], the MIC lay in the range of 2 to 32 µg/mL (≈ 5.43 to 86.9 µM).

`O=C(Nc1nc2ccc(OC(F)(F)F)cc2s1)C1CCCC1` [Example 130, N-[6-(trifluoromethoxy)-1,3-benzothiazol-2-yl]cyclopentanecarboxamide] yielded a minimal inhibitory concentration (MIC) of 2 to 32 µg/mL (≈ 6.05 to 96.9 µM).

In turn, `O=C(Nc1nc2ccccc2o1)C1C2CC3CC(C2)CC1C3` (centres unmarked) [Example 131, N-(1,3-benzoxazol-2-yl)adamantane-2-carboxamide] displayed an MIC of 2 to 32 µg/mL (≈ 6.75 to 108 µM).

In turn, `CC12CCCC(C(=O)Nc3nc4ccc(C(F)(F)F)cc4o3)(CCC1)C2` [Example 132, 5-methyl-N-[6-(trifluoromethyl)-1,3-benzoxazol-2-yl]bicyclo[3.3.1]nonane-1-carboxamide] returned a minimum inhibitory concentration (MIC) of 2 to 32 µg/mL (≈ 5.46 to 87.3 µM).

Consider `CC1(C(=O)Nc2nc3cc(F)cc(F)c3s2)CCCCC1` [Example 133, N-(5,7-difluoro-1,3-benzothiazol-2-yl)-1-methylcyclohexane-1-carboxamide], for which the MIC fell in the range of 2 to 32 µg/mL (≈ 6.44 to 103 µM).

Regarding `CC1(C(=O)Nc2nc3ccc(Br)cc3s2)CCCCC1` [Example 134, N-(6-bromo-1,3-benzothiazol-2-yl)-1-methylcyclohexane-1-carboxamide], the minimum inhibitory concentration (MIC) lay within 2 to 32 µg/mL (≈ 5.66 to 90.6 µM).

As for `CC1(C(=O)Nc2nc3ccc(Cl)cc3s2)CCCCC1` [Example 135, N-(6-chloro-1,3-benzothiazol-2-yl)-1-methylcyclohexane-1-carboxamide], the MIC is 2 to 32 µg/mL (≈ 6.48 to 104 µM).

`CC1(C(=O)Nc2nc3ccc(OC(F)(F)F)cc3s2)CCCC1` [Example 136, 1-methyl-N-[6-(trifluoromethoxy)-1,3-benzothiazol-2-yl]cyclopentane-1-carboxamide] gave an MIC of 2 to 32 µg/mL (≈ 5.81 to 92.9 µM).

The molecule `CC1(C(=O)Nc2nc3ccc(OC(F)(F)F)cc3s2)CC2CC2C1` (centres unmarked) [Example 137, 3-methyl-N-[6-(trifluoromethoxy)-1,3-benzothiazol-2-yl]bicyclo[3.1.0]hexane-3-carboxamide] registered an MIC of 2 to 32 µg/mL (≈ 5.61 to 89.8 µM).

In turn, `CCOc1ccc2nc(NC(=O)C3CC4CCCC(C4)C3)sc2c1` (centres unmarked) [Example 138, N-(6-ethoxy-1,3-benzothiazol-2-yl)bicyclo[3.3.1]nonane-3-carboxamide] displayed an MIC of 2 to 32 µg/mL (≈ 5.81 to 92.9 µM).

In the case of `O=C(Nc1nc2c(F)cc(F)cc2s1)C1CCCCCC1` [Example 139, N-(4,6-difluoro-1,3-benzothiazol-2-yl)cycloheptanecarboxamide], the MIC was in the range of 2 to 32 µg/mL (≈ 6.44 to 103 µM).

The molecule `CC12CC3CC(C)(C1)CC(C(=O)Nc1nc4cc(Cl)ccc4o1)(C3)C2` [Example 140, N-(5-chloro-1,3-benzoxazol-2-yl)-3,5-dimethyladamantane-1-carboxamide] returned a minimal inhibitory concentration (MIC) of 2 to 32 µg/mL (≈ 5.57 to 89.2 µM).

Turning to `O=C(Nc1nc2c(F)c(F)c(F)cc2s1)C1CCCCCC1` [Example 141, N-(4,5,6-trifluoro-1,3-benzothiazol-2-yl)cycloheptanecarboxamide], the MIC is 2 to 32 µg/mL (≈ 6.09 to 97.5 µM).

The molecule `CC1CC(C(=O)Nc2nc3cc(Cl)cc(Cl)c3o2)CC(C)(C)C1` (centres unmarked) [Example 142, N-(5,7-dichloro-1,3-benzoxazol-2-yl)-3,3,5-trimethylcyclohexane-1-carboxamide] displayed an MIC of 2 to 32 µg/mL (≈ 5.63 to 90.1 µM).

Molecule `Cc1cc(C)c2oc(NC(=O)C3CC(C)CC(C)(C)C3)nc2c1` (centres unmarked) [Example 143, N-(5,7-dimethyl-1,3-benzoxazol-2-yl)-3,3,5-trimethylcyclohexane-1-carboxamide] gave a minimum inhibitory concentration (MIC) of 2 to 32 µg/mL (≈ 6.36 to 102 µM).

Regarding `CC12CC3CC(C)(C1)CC(C(=O)Nc1nc4c(F)cccc4o1)(C3)C2` [Example 144, N-(4-fluoro-1,3-benzoxazol-2-yl)-3,5-dimethyladamantane-1-carboxamide], the minimum inhibitory concentration (MIC) fell in the range of 2 to 32 µg/mL (≈ 5.84 to 93.5 µM).

In turn, `COc1ccc2nc(NC(=O)C34CC5CC(C)(CC(C)(C5)C3)C4)oc2c1` [Example 145, N-(6-methoxy-1,3-benzoxazol-2-yl)-3,5-dimethyladamantane-1-carboxamide] registered a minimum inhibitory concentration (MIC) of 2 to 32 µg/mL (≈ 5.64 to 90.3 µM).

As a reminder, the MIC is the least concentration at which growth counts as inhibited.

The values are drawn from US11655225B2, “Antimycobacterial heterocyclic amides” (Crestone, Inc., priority 2018, dated 2023).
